Assay results published in patent publication US10894798B2, “Substituted dihydropyrrolopyrazole derivative” (UBE INDUSTRIES, LTD., priority 2015, dated 2021).

Legend:
[1] = molecular target: T1, CDK7 (Homo sapiens, UniProt P50613); test: CDK7 enzyme inhibition test; type: biochemical; conditions: [γ-33P]ATP, MBP substrate, 60 min preincubation at 25°C; Ki=IC50/(1+S/Km); read-out: Ki value of CDK7 inhibitory activity
T1 construct: purchased Carna Biosciences, Inc. 04-108
Procedure, shortened: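 Commercial human CDK7 with myelin basic protein substrate in HEPES pH 7.4 buffer with DTT, Triton X-100, MgCl2; compound preincubated 60 min at 25° C, then reaction run 20 min at 30° C after adding [γ-^33P]ATP (500 μM solution). TCA-precipitated ^33P-MBP counted by scintillation; IC50 converted to Ki via Ki=IC50/(1+S/Km).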

[2] = system: IL-17 production; test: Human PBMC various-stimulant cocktail-induced IL-17 production inhibition test; type: cell-based; conditions: 120 h, human T-cell suspension from PBMC, culture for 5 days, ELISA
Description: PBMC was separated and collected by using Ficoll-Paque (manufactured by GE Healthcare Japan Corp.) from blood collected from a healthy human adult in the presence of heparin. The collected PBMC was further cultured in a flask for a certain time, and then, non-adherent cells in the supernatant were collected and used as a T-cell suspension.
A RPMI1640 medium containing 10% FBS, 1% penicillin/streptomycin/amphotericin B, essential amino acids, and pyruvic acid and containing a test compound dissolved in DMSO, a human CD28 antibody, a human IFN-γ antibody, a human IL-4 antibody, human IL-6, human IL-23, human IL-1β, and human TGF-β was added at 100 μL/well to T cell Activation Plate Anti-Human CD3 96-well plate. Subsequently, 100 μL of a T-cell suspension adjusted to 2×10^5 cells/mL was added to each well (final DMSO concentration: 0.1%). Only DMSO was added to wells not supplemented with the test compound. After culture for 5 days in a carbon dioxide incubator, the culture supernatant was collected and stored at −20° C. until IL-17 content measurement.
In the measurement of an IL-17 content in the culture supernatant, a sandwich ELISA kit (Quantikine Human IL-17, manufactured by R&D Systems, Inc.) was used. The IL-17 content of each sample was calculated from the calibration curve of Standard IL-17 included in the kit. […] The concentration of the test compound necessary for inhibiting 50% of IL-17 production (IC50 value) was calculated from the concentration of the added test compound and the rate of inhibition of IL-17 production by the test compound by using EXSUS (version 8.1.0, manufactured by CAC Exicare Corp.).

[3] = system: human large intestine cancer cell (HCT 116) tumor; test: Tumor growth inhibition test in HCT 116-subcutaneously transplanted nude mouse; type: in vivo; conditions: dose of 100 mg/kg, repeated oral administration, HCT-116 in female BALB nude mice, control group = 100%, read-out: rate of suppression of tumor volume
Experimental: A human large intestine cancer cell line (HCT-116) was cultured in a McCoy's 5A medium containing 10% FBS and 1% penicillin/streptomycin/amphotericin B and adjusted to 1.0×10^8 cells/mL with PBS or Hanks solution (HBSS(−)). The prepared cell suspension was subcutaneously injected at 0.1 mL/mouse to the right abdomens of female BALB nude mice (supplied by Charles River Laboratories Japan, Inc.). After rearing for a certain period, the long diameter (mm) and short diameter (mm) of tumor were measured with electronic calipers, and the tumor volume was calculated according to the following expression: Tumor volume (mm^3)=(Long diameter)×(Short diameter)×(Short diameter)×0.5
Individuals whose tumor volume was within the range of 50 to 200 mm^3 were selected and grouped such that the tumor volume was almost equivalent, then a test compound or only a solvent was orally administered in a repeated manner, and the body weights and tumor volume were measured. A test compound was suspended in a 0.5 w/v % aqueous methylcellulose solution (0.5% MC) (manufactured by Wako Pure Chemical Industries, Ltd.) and orally administered at 10 mL/kg in a repeated manner. When the tumor volume of the control group was defined as 100%, the rate of suppression of tumor volume (%) at each dose of the test compound was calculated.

T1 sequence (P50613 whole entry): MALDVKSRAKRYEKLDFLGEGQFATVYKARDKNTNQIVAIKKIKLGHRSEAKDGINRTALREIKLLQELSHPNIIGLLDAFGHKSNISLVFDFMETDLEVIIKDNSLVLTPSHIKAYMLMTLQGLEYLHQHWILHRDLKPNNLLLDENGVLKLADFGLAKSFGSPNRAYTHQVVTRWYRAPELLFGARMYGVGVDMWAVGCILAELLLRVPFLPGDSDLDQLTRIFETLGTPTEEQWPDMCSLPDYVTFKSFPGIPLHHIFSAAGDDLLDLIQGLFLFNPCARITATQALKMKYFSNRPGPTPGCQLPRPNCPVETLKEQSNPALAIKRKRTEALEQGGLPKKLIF
T1 sequence (P51946 whole entry partner): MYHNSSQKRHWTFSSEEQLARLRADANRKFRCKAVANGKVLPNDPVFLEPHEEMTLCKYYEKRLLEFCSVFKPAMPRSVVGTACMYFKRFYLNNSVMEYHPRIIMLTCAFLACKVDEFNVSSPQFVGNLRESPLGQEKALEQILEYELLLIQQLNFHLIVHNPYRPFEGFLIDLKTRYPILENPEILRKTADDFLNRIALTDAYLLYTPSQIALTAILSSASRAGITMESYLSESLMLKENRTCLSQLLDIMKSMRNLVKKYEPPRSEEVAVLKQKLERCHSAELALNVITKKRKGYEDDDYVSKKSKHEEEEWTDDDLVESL
T1 sequence (P51948 whole entry partner): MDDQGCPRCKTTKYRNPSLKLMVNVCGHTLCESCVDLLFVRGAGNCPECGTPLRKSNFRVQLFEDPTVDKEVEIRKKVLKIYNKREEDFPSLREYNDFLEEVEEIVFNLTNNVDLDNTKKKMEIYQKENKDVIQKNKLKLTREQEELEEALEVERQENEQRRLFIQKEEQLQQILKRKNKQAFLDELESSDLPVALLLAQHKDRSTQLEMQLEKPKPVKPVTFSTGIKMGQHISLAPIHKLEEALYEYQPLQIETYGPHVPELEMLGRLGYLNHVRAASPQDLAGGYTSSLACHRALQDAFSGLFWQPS

SMILES: Cc1cccc(Cl)c1NC(=O)N1Cc2c(NC(=O)C3([Si](C)(C)C)CCC3)n[nH]c2C1(C)C [IV-215, N-(2-Chloro-6-methylphenyl)-6,6-dimethyl-3-[1-(trimethylsilyl)cyclobutanecarboxamido]-4,6-dihydropyrrolo[3,4-c]pyrazole-5 (1H)-carboxamide]
- Ki [1]: ≤ 50 nM
- IC50 [2]: ≤ 100 nM
- inhibition in vivo at 100 mg/kg [3]: ≥ 50%

SMILES: CC1(C)c2[nH]nc(NC(=O)C3([Si](C)(C)C)CCC3)c2CN1C(=O)Nc1c(F)ccc(F)c1F [IV-597, 6,6-Dimethyl-N-(2,3,6-trifluorophenyl)-3-[1-(trimethylsilyl)cyclobutanecarboxamido]-4,6-dihydropyrrolo[3,4-c]pyrazole-5(1H)-carboxamide]
- Ki [1]: ≤ 50 nM
- inhibition in vivo at 100 mg/kg [3]: ≥ 50%

SMILES: CC1(C)c2[nH]nc(NC(=O)C3([Si](C)(C)C)CCC3)c2CN1C(=O)Nc1c(F)cccc1OC(F)F [IV-169, N-[2-(Difluoromethoxy)-6-fluorophenyl]-6,6-dimethyl-3-[1-(trimethylsilyl)cyclobutanecarboxamido]-4,6-dihydropyrrolo[3,4-c]pyrazole-5(1H)-carboxamide]
- Ki [1]: ≤ 50 nM

SMILES: CC1(C)c2[nH]nc(NC(=O)C3([Si](C)(C)C)CCC3)c2CN1C(=O)Nc1c(F)cccc1Cl [IV-113, N-(2-Chloro-6-fluorophenyl)-6,6-dimethyl-3-[1-(trimethylsilyl)cyclobutanecarboxamido]-4,6-dihydropyrrolo[3,4-c]pyrazole-5(1H)-carboxamide]
- Ki [1]: ≤ 50 nM
- inhibition in vivo at 100 mg/kg [3]: ≥ 50%

SMILES: COc1cccc(F)c1NC(=O)N1Cc2c(NC(=O)C3([Si](C)(C)C)CCC3)n[nH]c2C1(C)C [IV-161, N-(2-Fluoro-6-methoxyphenyl)-6,6-dimethyl-3-[1-(trimethylsilyl)cyclobutanecarboxamido]-4,6-dihydropyrrolo[3,4-c]pyrazole-5(1H)-carboxamide]
- Ki [1]: ≤ 50 nM

SMILES: Cc1ccc(F)cc1NC(=O)N1Cc2c(NC(=O)C3([Si](C)(C)C)CCC3)n[nH]c2C1(C)C [IV-361, N-(5-Fluoro-2-methylphenyl)-6,6-dimethyl-3-[1-(trimethylsilyl)cyclobutanecarboxamido]-4,6-dihydropyrrolo[3,4-c]pyrazole-5 (1H)-carboxamide]
- Ki [1]: ≤ 50 nM
- IC50 [2]: ≤ 100 nM
- inhibition in vivo at 100 mg/kg [3]: ≥ 50%

SMILES: CCc1cccc(F)c1NC(=O)N1Cc2c(NC(=O)C3([Si](C)(C)C)CCC3)n[nH]c2C1(C)C [IV-137, N-(2-Ethyl-6-fluorophenyl)-6,6-dimethyl-3-[1-(trimethylsilyl)cyclobutanecarboxamido]-4,6-dihydropyrrolo[3,4-c]pyrazole-5(1H)-carboxamide]
- Ki [1]: ≤ 50 nM
- IC50 [2]: ≤ 100 nM

SMILES: COc1cccc(Cl)c1NC(=O)N1Cc2c(NC(=O)C3([Si](C)(C)C)CCC3)n[nH]c2C1(C)C [IV-247, N-(2-Chloro-6-methoxyphenyl)-6,6-dimethyl-3-[1-(trimethylsilyl)cyclobutanecarboxamido]-4,6-dihydropyrrolo[3,4-c]pyrazole-5(1H)-carboxamide]
- Ki [1]: ≤ 50 nM
- IC50 [2]: ≤ 100 nM

SMILES: Cc1ccc(C)c(NC(=O)N2Cc3c(NC(=O)C4([Si](C)(C)C)CCC4)n[nH]c3C2(C)C)c1F [IV-669, N-(2-Fluoro-3,6-dimethylphenyl)-6,6-dimethyl-3-[1-(trimethylsilyl)cyclobutanecarboxamido]-4,6-dihydropyrrolo[3,4-c]pyrazole-5(1H)-carboxamide]
- Ki [1]: ≤ 50 nM
- IC50 [2]: ≤ 100 nM
- inhibition in vivo at 100 mg/kg [3]: ≥ 50%

SMILES: CC1(C)c2[nH]nc(NC(=O)C3([Si](C)(C)C)CCC3)c2CN1C(=O)Nc1c(Cl)cccc1Cl [IV-199, N-(2,6-Dichlorophenyl)-6,6-dimethyl-3-[1-(trimethylsilyl)cyclobutanecarboxamido]-4,6-dihydropyrrolo[3,4-c]pyrazole-5(1H)-carboxamide]
- Ki [1]: ≤ 50 nM
- IC50 [2]: ≤ 100 nM
- inhibition in vivo at 100 mg/kg [3]: ≥ 50%

SMILES: CC1(C)c2[nH]nc(NC(=O)C3([Si](C)(C)C)CCC3)c2CN1C(=O)Nc1c(F)ccc2ccoc12 [IV-1049, N-(6-Fluorobenzofuran-7-yl)-6,6-dimethyl-3-[1-(trimethylsilyl)cyclobutanecarboxamido]-4,6-dihydropyrrolo[3,4-c]pyrazole-5 (1H)-carboxamide]
- Ki [1]: ≤ 50 nM
- IC50 [2]: ≤ 100 nM
- inhibition in vivo at 100 mg/kg [3]: ≥ 50%

SMILES: Cc1cccc(F)c1NC(=O)N1Cc2c(NC(=O)C3([Si](C)(C)C)CCC3)n[nH]c2C1(C)C [IV-129, N-(2-Fluoro-6-methylphenyl)-6,6-dimethyl-3-[1-(trimethylsilyl)cyclobutanecarboxamido]-4,6-dihydropyrrolo[3,4-c]pyrazole-5 (1H)-carboxamide]
- Ki [1]: ≤ 50 nM
- IC50 [2]: ≤ 100 nM

SMILES: CC1(C)c2[nH]nc(NC(=O)C3([Si](C)(C)C)CCC3)c2CN1C(=O)Nc1c(F)ccc2cc(Cl)oc12 [IV-1063, N-(2-Chloro-6-fluorobenzofuran-7-yl)-6,6-dimethyl-3-[1-(trimethylsilyl)cyclobutanecarboxamido]-4,6-dihydropyrrolo[3,4-c]pyrazole-5(1H)-carboxamide]
- Ki [1]: ≤ 50 nM
- inhibition in vivo at 100 mg/kg [3]: ≥ 50%

SMILES: Cc1ccc(C)c(NC(=O)N2Cc3c(NC(=O)C4([Si](C)(C)C)CCC4)n[nH]c3C2(C)C)c1 [IV-379, N-(2,5-Dimethylphenyl)-6,6-dimethyl-3-[1-(trimethylsilyl)cyclobutanecarboxamido]-4,6-dihydropyrrolo[3,4-c]pyrazole-5(1H)-carboxamide]
- Ki [1]: ≤ 50 nM
- IC50 [2]: ≤ 100 nM
- inhibition in vivo at 100 mg/kg [3]: ≥ 50%

SMILES: CCc1cccc(C)c1NC(=O)N1Cc2c(NC(=O)C3([Si](C)(C)C)CCC3)n[nH]c2C1(C)C [IV-389, N-(2-Ethyl-6-methylphenyl)-6,6-dimethyl-3-[1-(trimethylsilyl)cyclobutanecarboxamido]-4,6-dihydropyrrolo[3,4-c]pyrazole-5 (1H)-carboxamide]
- Ki [1]: ≤ 50 nM
- IC50 [2]: ≤ 100 nM
- inhibition in vivo at 100 mg/kg [3]: ≥ 50%

SMILES: Cc1ccc(F)c(NC(=O)N2Cc3c(NC(=O)C4([Si](C)(C)C)CCC4)n[nH]c3C2(C)C)c1 [IV-127, N-(2-Fluoro-5-methylphenyl)-6,6-dimethyl-3-[1-(trimethylsilyl)cyclobutanecarboxamido]-4,6-dihydropyrrolo[3,4-c]pyrazole-5 (1H)-carboxamide]
- Ki [1]: ≤ 50 nM
- inhibition in vivo at 100 mg/kg [3]: ≥ 50%

SMILES: CC1(C)c2[nH]nc(NC(=O)C3([Si](C)(C)C)CCC3)c2CN1C(=O)Nc1ccccc1Br [IV-15, N-(2-Bromophenyl)-6,6-dimethyl-3-[1-(trimethylsilyl)cyclobutanecarboxamido]-4,6-dihydropyrrolo[3,4-c]pyrazole-5(1H)-carboxamide]
- Ki [1]: ≤ 50 nM
- inhibition in vivo at 100 mg/kg [3]: ≥ 50%

SMILES: Cc1cc(F)ccc1NC(=O)N1Cc2c(NC(=O)C3([Si](C)(C)C)CCC3)n[nH]c2C1(C)C [IV-359, N-(4-Fluoro-2-methylphenyl)-6,6-dimethyl-3-[1-(trimethylsilyl)cyclobutanecarboxamido]-4,6-dihydropyrrolo[3,4-c]pyrazole-5 (1H)-carboxamide]
- Ki [1]: ≤ 50 nM
- inhibition in vivo at 100 mg/kg [3]: ≥ 50%

SMILES: Cc1ccccc1NC(=O)N1Cc2c(NC(=O)C3([Si](C)(C)C)CCC3)n[nH]c2C1(C)C [IV-21, 6,6-Dimethyl-N-(o-tolyl)-3-[1-(trimethylsilyl)cyclobutanecarboxamido]-4,6-dihydropyrrolo[3,4-c]pyrazole-5(1H)-carboxamide]
- Ki [1]: ≤ 50 nM
- inhibition in vivo at 100 mg/kg [3]: ≥ 50%

SMILES: CC1(C)c2[nH]nc(NC(=O)C3([Si](C)(C)C)CCC3)c2CN1C(=O)Nc1ccccc1F [IV-3, N-(2-Fluorophenyl)-6,6-dimethyl-3-[1-(trimethylsilyl)cyclobutanecarboxamido]-4,6-dihydropyrrolo[3,4-c]pyrazole-5(1H)-carboxamide]
- Ki [1]: ≤ 50 nM
- IC50 [2]: ≤ 100 nM
- inhibition in vivo at 100 mg/kg [3]: ≥ 50%
